Reference: patent US7998965B2, “Glutamate aggrecanase inhibitors” (Wyeth LLC, priority 2005, dated 2011)
Read-outs that look alike come from different tables or passages of the source.

Columns and labels:
[1] = biological target: T1, purified recombinant human Aggrecanase-2 (Ag2t-Phe628-Strep) (Homo sapiens, UniProt Q9UNA0); assay: In vitro fluorescence screen for Aggrecanase-2 inhibitors; type: biochemical; settings: for IC50: read-out: Agg 2 IC50; for Ki: read-out: Ki Agg2
T1 construct: the form used is denoted as Ag2t-Phe628-Strep (MW=41,737)
T1 sequence (Q9UNA0 262-628): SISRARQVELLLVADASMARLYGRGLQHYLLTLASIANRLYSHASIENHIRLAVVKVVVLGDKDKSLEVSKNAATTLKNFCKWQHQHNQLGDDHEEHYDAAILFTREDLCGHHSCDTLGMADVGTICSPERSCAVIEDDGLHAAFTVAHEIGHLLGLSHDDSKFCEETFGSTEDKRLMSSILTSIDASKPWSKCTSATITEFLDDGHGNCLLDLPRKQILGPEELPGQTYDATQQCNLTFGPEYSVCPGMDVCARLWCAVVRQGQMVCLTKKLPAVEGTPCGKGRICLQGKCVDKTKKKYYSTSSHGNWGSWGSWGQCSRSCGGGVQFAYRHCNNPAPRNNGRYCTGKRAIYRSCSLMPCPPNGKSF

[2] = biological target: T2, purified recombinant human Aggrecanase-1 (rAgg1) (Homo sapiens, UniProt O75173); assay: In vitro fluorescence screen for Aggrecanase-1 inhibitors; type: biochemical; settings: for IC50: read-out: Agg1 IC50
T2 sequence (O75173 213-837): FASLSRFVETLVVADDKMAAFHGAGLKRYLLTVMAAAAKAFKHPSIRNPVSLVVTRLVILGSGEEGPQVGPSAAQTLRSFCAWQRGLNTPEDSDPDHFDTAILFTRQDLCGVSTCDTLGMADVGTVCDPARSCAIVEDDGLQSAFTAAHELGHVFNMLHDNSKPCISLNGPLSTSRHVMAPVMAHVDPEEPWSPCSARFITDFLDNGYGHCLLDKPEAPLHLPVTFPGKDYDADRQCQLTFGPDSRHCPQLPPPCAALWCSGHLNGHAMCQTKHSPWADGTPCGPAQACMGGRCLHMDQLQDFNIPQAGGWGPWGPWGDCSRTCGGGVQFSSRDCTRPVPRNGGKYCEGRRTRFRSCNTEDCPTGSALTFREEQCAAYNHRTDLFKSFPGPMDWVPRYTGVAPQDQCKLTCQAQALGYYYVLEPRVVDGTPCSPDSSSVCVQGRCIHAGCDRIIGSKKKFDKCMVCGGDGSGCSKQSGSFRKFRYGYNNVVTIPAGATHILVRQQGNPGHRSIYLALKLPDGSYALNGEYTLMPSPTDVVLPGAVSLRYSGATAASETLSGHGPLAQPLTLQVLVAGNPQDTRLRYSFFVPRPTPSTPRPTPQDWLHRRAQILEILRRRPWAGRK

MMP-8 = MMP-8 (Homo sapiens, UniProt P22894); assay: MMP-8 of Table 3; type: biochemical; settings: unit inferred
MMP-12 = MMP-12 (Homo sapiens, UniProt P39900); assay: MMP-12 of Table 3; type: biochemical; settings: unit inferred
recombinant human MMP-2 = biological target: T3, recombinant human MMP-2 (Homo sapiens, UniProt P08253); assay: In vitro fluorescence assay of MMP-2 activity
T3 sequence (P08253 110-660): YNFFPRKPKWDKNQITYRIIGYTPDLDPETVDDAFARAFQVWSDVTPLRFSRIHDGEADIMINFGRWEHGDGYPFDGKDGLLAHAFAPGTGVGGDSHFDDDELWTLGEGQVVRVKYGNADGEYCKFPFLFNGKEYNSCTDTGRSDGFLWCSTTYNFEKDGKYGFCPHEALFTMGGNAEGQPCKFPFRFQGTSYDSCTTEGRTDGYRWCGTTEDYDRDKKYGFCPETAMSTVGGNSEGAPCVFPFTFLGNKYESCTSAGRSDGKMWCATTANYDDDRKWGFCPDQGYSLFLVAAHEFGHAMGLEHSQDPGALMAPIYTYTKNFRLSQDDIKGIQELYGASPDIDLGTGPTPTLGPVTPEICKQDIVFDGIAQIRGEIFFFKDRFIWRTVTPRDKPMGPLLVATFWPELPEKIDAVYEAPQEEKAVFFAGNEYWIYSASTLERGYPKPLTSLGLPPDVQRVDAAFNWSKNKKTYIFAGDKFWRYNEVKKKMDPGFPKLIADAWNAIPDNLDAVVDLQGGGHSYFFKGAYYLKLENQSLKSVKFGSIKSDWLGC
Protocol: A continuous assay was used in which the substrate is a synthetic peptide containing a fluorescent group (7-methoxycoumarin; Mca), which is quenched by energy transfer to a 2,4-dinitrophenyl group. […] The source of enzyme in the assay was the recombinant human MMP-2 (66 kDa; Oncogene Research Products (catalog number PF023 from Calbiochem)). The substrate used was the peptide Mca-PQGL-(3-[2,4-dinitrophenyl]-L-2,3-diaminopropionyl)-AR-OH. The assay buffer consisted of 50 mM Hepes (pH 7.4), 100 mM NaCl, 5 mM CaCl2, and 0.005% Brij-35. […] The plates were then incubated at 30° C. for 15 minutes. The enzymatic reactions were initiated by adding the substrate to a final concentration of 20 μM, and mixing 10 times with a pipette. The final DMSO concentration in the assay was 6.0%.
Plots of the inhibitor concentration vs. the percent inhibition were fit to the following equation: y=(a−d)/[^1+(x/c)^b]+d, a general sigmoidal curve with Hill slope, a to d. x is the inhibitor concentration under test. y is the percent inhibition. a is the limiting response as x approaches zero. As x increases without bound, y tends toward its limit d. c is the inflection point (IC50) for the curve. That is, y is halfway between the lower and upper asymptotes when x=c. b is the slope factor or Hill coefficient.

MMP-1 = biological target: T4, MMP-1 (Homo sapiens, UniProt P03956); assay: MMP-1 of Table 1; type: biochemical; settings: unit inferred
T4 sequence (P03956 100-469): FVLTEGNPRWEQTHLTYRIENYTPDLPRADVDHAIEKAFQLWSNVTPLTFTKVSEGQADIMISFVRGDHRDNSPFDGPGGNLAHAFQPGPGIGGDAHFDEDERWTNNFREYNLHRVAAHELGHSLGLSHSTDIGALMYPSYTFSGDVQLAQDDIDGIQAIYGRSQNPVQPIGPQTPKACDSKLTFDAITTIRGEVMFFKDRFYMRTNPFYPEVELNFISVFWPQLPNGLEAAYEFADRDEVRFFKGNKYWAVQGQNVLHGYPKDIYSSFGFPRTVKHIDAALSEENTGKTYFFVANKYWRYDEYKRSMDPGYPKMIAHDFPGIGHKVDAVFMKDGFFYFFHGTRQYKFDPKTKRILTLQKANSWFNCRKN

[3] = biological target: T5, recombinant human catalytic domain of MMP-14 (Homo sapiens, UniProt P50281); assay: In vitro fluorescence assay of MMP-14 activity; type: biochemical; settings: Table 1; unit inferred
T5 construct: 177 amino acids corresponding to Tyr89-Gly265 of mature human enzyme; purchased Chemicon International, Inc. CC1041

[4] = system: bovine articular cartilage treated with Interleukin 1 alpha (IL-1α); assay: Bovine articular cartilage explant cultures: inhibition of degradation of proteoglycan; type: cell-based; settings: inhibitory effect expressed as percentage, concentration not printed
Method in brief: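 Bovine metacarpal cartilage discs (6 mm), equilibrated in serum-free DMEM-based medium, were treated with 5 ng/ml IL-1 plus compound (working solutions 0.1-10 μg/ml), with medium collected and replaced on days 1, 2 and 3. Released proteoglycan was measured by DMMB absorbance at 520 nm against chondroitin sulphate standards, expressed as μg per mg cartilage, and inhibition given as percentage.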

[5] = biological target: T6, recombinant human catalytic domain of MMP-13 (Homo sapiens, UniProt P45452); assay: In vitro fluorescence assay of MMP-13 activity; type: biochemical; settings: Table 1; unit inferred
T6 construct: catalytic domain of MMP-13 (165 amino acids, residues 104-268, 19 kDa)

[6] = Table 1, first of two columns headed bovine
[7] = Table 1, second of two columns headed bovine

Chain of MMP-12 (P39900 106-470): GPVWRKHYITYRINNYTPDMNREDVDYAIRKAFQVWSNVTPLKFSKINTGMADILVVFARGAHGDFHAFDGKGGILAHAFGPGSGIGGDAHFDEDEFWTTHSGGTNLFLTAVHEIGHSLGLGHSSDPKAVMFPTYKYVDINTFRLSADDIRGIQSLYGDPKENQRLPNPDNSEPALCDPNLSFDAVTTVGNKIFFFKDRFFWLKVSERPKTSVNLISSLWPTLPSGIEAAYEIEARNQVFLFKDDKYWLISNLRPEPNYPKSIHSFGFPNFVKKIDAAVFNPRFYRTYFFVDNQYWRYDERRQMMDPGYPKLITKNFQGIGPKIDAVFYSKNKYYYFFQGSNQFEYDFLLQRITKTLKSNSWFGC
Chain of MMP-8 (P22894 101-467, species assumed): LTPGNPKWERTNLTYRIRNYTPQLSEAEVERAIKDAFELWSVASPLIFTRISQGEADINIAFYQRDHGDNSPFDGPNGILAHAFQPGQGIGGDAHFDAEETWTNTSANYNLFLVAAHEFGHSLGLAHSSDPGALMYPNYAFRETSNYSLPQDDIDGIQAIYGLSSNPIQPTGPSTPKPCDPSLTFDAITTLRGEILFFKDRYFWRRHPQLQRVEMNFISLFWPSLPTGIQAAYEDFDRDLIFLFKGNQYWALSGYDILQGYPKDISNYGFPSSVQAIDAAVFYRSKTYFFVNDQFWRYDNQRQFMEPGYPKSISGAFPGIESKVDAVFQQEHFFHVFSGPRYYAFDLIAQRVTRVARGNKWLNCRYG

Compound	IC50 ([1]; Table 3) [nM]	Ki ([1]; Table 3) [nM]	IC50 ([2]; Table 3) [nM]	Ki ([2]; Table 3, read-out: Ki Agg1) [nM]	IC50 (MMP-8) [nM]	IC50 (MMP-12) [nM]	IC50 (recombinant human MMP-2) [µM]	inhibition at 0.14 µM ([1]; Table 3, at 140 (nM), read-out: Agg 2 % at concentration) [%]	IC50 ([1]; Table 1) [nM]	Ki ([2]; Table 1, enzyme not given, column follows Agg1 IC50, read-out: Ki) [nM]	IC50 ([2]; Table 1) [nM]	IC50 (MMP-1) [nM]	IC50 [3] [nM]	bovine [4, 6] [%]	bovine [4, 7] [%]	IC50 [5] [µM]
CC(C)(Cc1ccccc1)NC(=O)[C@H](CCC(=O)O)NC(=O)c1ccc(-c2ccc(Br)s2)cc1 [Example 8OOOOOOOOO, N^2-[4-(5-bromo-2-thienyl)benzoyl]-N-(1,1-dimethyl-2-phenylethyl)-L-α-glutamine]	~30	66	< 30	2.7	349	372	0.718	–	–	–	–	–	–	–	–	–
CC(C)(Cc1ccc(F)cc1)NC(=O)[C@H](CCC(=O)O)NC(=O)c1ccc(-c2ccsc2)cc1 [Example 8UUUUUUU, N-[2-(4-fluorophenyl)-1,1-dimethylethyl]-N^2-[4-(3-thienyl)benzoyl]-L-α-glutamine]	60	60	< 30	< 3	2030	410	5.18	–	–	–	–	–	–	–	–	–
Cc1ccc(-c2ccc(C(=O)N[C@@H](CCC(=O)O)C(=O)NC(C)(C)Cc3ccc(F)cc3)cc2)s1 [Example 8VVVVVVV, N-[2-(4-fluorophenyl)-1,1-dimethylethyl]-N^2-[4-(5-methyl-2-thienyl)benzoyl]-L-α-glutamine]	–	305	< 30	7	410	770	0.57	51	–	–	–	–	–	–	–	–
CC(C)(Cc1ccc(F)cc1)NC(=O)[C@H](CCC(=O)O)NC(=O)c1ccc(-c2ccc(Br)s2)cc1 [Example 8WWWWWW, N^2-[4-(5-bromo-2-thienyl)benzoyl]-N-[2-(4-fluorophenyl)-1,1-dimethylethyl]-L-α-glutamine]	50	72	< 3	7.1	1000	5800	2.6	–	–	–	–	–	–	–	–	–
CC(C)(Cc1ccc(Cl)s1)NC(=O)[C@H](CCC(=O)O)NC(=O)c1ccc(-c2cccc(F)c2)cc1 [Example 8XXXXXX, N-[2-(5-chloro-2-thienyl)-1,1-dimethylethyl]-N^2-[(3′-fluorobiphenyl-4-yl)carbonyl]-L-α-glutamine]	20	60	< 30	< 3	4100	1600	7.5	–	–	–	–	–	–	–	–	–
CC(C)(Cc1ccc(Cl)cc1)NC(=O)[C@H](CCC(=O)O)NC(=O)c1ccc(-c2ccc(Cl)cc2)cc1 [Example 8XXXXXXXXX, N^2-[(4′-chlorobiphenyl-4-yl)carbonyl]-N-[2-(4-chlorophenyl)-1,1-dimethylethyl]-L-α-glutamine]	25	71.6	< 30	18.2	1790	597	2.61	–	–	–	–	–	–	–	–	–
CC(C)(Cc1ccc(F)cc1)NC(=O)[C@H](CCC(=O)O)NC(=O)c1ccc(-c2ccc(F)c(F)c2)cc1 [Example 8YYYYYY, N^2-[(3′,4′-difluorobiphenyl-4-yl)carbonyl]-N-[2-(4-fluorophenyl)-1,1-dimethylethyl]-L-α-glutamine]	30	160	< 30	13.5	737	365	4.7	–	–	–	–	–	–	–	–	–
CC(C)(Cc1ccc(F)cc1)NC(=O)[C@H](CCC(=O)O)NC(=O)c1ccc(-c2ccc(F)cc2)s1 [Example 8ZZZZZZZZZ, N-[2-(4-fluorophenyl)-1,1-dimethylethyl]-N^2-{[5-(4-fluorophenyl)-2-thienyl]carbonyl}-L-α-glutamine]	30 to 90	123	< 30	4.7	2440	2860	8.28	–	–	–	–	–	–	–	–	–
C=Cc1ccc(CNC(=O)[C@H](CCC(=O)O)NC(=O)c2ccc(-c3ccccc3)cc2)cc1 [Example 10R, N^2-(1,1′-biphenyl-4-ylcarbonyl)-N^1-(4-vinylbenzyl)-L-α-glutamine]	–	–	–	–	–	–	> 20	–	1900	187	77	> 50000	> 200000	41	0	> 20
O=C(O)CC[C@H](NC(=O)c1ccc(-c2cccs2)cc1)C(=O)NCc1ccccc1 [Example 11, N^1-benzyl-N^2-(4-thien-2-ylbenzoyl)-L-α-glutamine]	–	–	–	–	–	–	~1	–	~800	–	110	~2000	~2000	78	52	~5
O=C(O)CC[C@H](NC(=O)c1ccc(-c2ccco2)cc1)C(=O)NCc1ccccc1 [Example 12A, N^1-benzyl-N^2-[4-(2-furyl)benzoyl]-L-α-glutamine]	–	–	–	–	–	–	~2	–	~5000	–	700	~2000	~2000	41	18	~6
Cc1cc(C)cc(-c2ccc(C(=O)N[C@@H](CCC(=O)O)C(=O)NCc3ccccc3)cc2)c1 [Example 13A, N^1-benzyl-N^2-[(3′,5′-dimethyl-1,1′-biphenyl-4-yl)carbonyl]-L-α-glutamine]	–	–	–	–	–	–	~67	–	~67000	–	1500	> 100000	> 100000	37	18	> 100
CCOc1cccc(-c2ccc(C(=O)N[C@@H](CCC(=O)O)C(=O)NCc3ccccc3)cc2)c1 [Example 13D, N^1-benzyl-N^2-[(3′-ethoxy-1,1′-biphenyl-4-yl)carbonyl]-L-α-glutamine]	–	–	–	–	–	–	> 200	–	~26000	–	750	> 100000	> 100000	51	25	> 200
